The results in this text go back to patent US10323041B2, “Bicyclic derivatives, a process for their preparation and pharmaceutical compositions containing them” (LES LABORATOIRES SERVIER, priority 2015, dated 2019).

Each structure is given as a SMILES string. Like-named read-outs stand apart in the source and are kept apart here.

The IC50 is the midpoint of a concentration-inhibition curve. One may read the inhibition as how much of the control response was suppressed.

In experiment [1] the test system is H929 multiple myeloma tumour line. The experiment can be described thus: In vitro cytotoxicity, Microculture Tetrazolium Assay on H929 cells. It counts as cell-based. The note with it: cell viability, read-out: IC50 (M) MTT H929. As to the method: The cytotoxicity studies were carried out on the H929 multiple myeloma tumour line.
The cells are distributed onto microplates and exposed to the test compounds for 48 hours. The cell viability is then quantified by a colorimetric assay, the Microculture Tetrazolium Assay (Cancer Res., 1987, 47, 939-942).

Another experiment concerns the target Mcl-1 protein (Homo sapiens, UniProt Q07820). Description: Inhibition of Mcl-1 by the fluorescence polarisation technique. It counts as binding. As to the method:
The relative binding potency of each compound was determined via fluorescence Polarisation (FP). The method utilised a Fluorescein labelled ligand Fluorescein-βAla-Ahx-[A-REIGAQLRRMADDLNAQY (SEQ ID NO: 1)]-OH; mw 2,765) which binds to the Mcl-1 protein (such that corresponds to the UniProtKB® primary accession number: Q07820) leading to an increased anisotropy measured in milli-polarisation (mP) units using a reader. The addition of a compound which binds competitively to the same site as the ligand will result in a greater proportion of unbound ligand in the system indicated by a decrease in mP units.
Method 1: An 11 point serial dilution of each compound was prepared in DMSO and 2 μl transferred into flat bottomed, low binding, 384-well plate (final DMSO concentration 5%). 38 μl of buffer (10 mM 4-(2-hydroxyethyl)-1-piperazineethanesulfonic acid [HEPES], 150 mM NaCl, 0.05% Tween 20, pH 7.4), containing the Fluorescein labelled ligand (final concentration 1 nM) and Mcl-1 protein (final concentration 5 nM) was then added.
(§1) Assay plates were incubated ˜2 hours at room temperature before FP was measured on a […] Synergy2 reader (Ex. 528 nm, Em. 640 nm, Cut off 510 nm) and mP units calculated. The binding of increasing doses of test compound was expressed as a percentage reduction in mP compared to a window established between ‘5% DMSO only’ and ‘100% inhibition’ controls. 11-point dose response curves were plotted with XL-Fit software using a 4-Parameter Logistic Model (Sigmoidal Dose-Response Model) and the inhibitory concentrations that gave a 50% reduction in mP (IC50) were determined. Results obtained using Method 1 are presented in Table 1 below; IC50 of Mcl-1 inhibition obtained using Method 1 are not underlined.
Method 2: An 11 point serial dilution of each compound was prepared in DMSO and 2 μl transferred into flat bottomed, low binding, 384-well plate (final DMSO concentration 5%). 38 μl of buffer (20 mM Na2HPO4, 1 mM EDTA, 50 mM NaCl, pH 7.4), containing the Fluorescein labelled ligand (final concentration 10 nM) and Mcl-1 protein (final concentration 10 nM) was then added.
as §1, with “inhibition’ controls (50 μM unlabelled ligand).” for “inhibition’ controls.”, “Method 2” for “Method 1”, “are” for “are not”
On the technique in general: Fluorescence polarisation rises when a labelled molecule tumbles more slowly, as on binding a larger partner.

[2] abbreviates: Homo sapiens, NCI-H929, exposed for 48 hours.
Setting [3] is: Method 1 (not underlined) or Method 2 (underlined), underlining not visible, first value where cell prints two, read-out: IC50 (M) Mcl-1 FP.
[4] abbreviates: @ 10 μM test compound, partial inhibitors.

Sequence of Mcl-1 protein (Q07820 whole entry): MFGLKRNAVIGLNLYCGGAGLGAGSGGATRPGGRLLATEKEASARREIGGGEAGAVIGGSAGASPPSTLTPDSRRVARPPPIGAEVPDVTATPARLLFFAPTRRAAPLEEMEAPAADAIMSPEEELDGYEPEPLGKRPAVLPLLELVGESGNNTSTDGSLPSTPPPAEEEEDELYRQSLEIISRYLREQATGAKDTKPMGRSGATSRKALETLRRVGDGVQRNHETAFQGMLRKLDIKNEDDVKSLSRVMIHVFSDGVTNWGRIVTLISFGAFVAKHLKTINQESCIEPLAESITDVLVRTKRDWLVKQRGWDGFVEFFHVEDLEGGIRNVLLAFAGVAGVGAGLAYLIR

Regarding `COc1ccccc1-c1nccc(COc2ccccc2CC(Oc2cccc3oc(-c4ccc(F)cc4)c(-c4ccc(OCCN5CCN(C)CC5)c(Cl)c4C)c23)C(=O)O)n1` (single isomer, unassigned) [Example 64], the IC50 in experiment [1] (setting [2]) was 4.71e-08 M; at Mcl-1 protein (setting [3]), 7.4e-09 M.
On to `COc1ccccc1-c1nccc(COc2ccccc2CC(Oc2cccc3c2c(-c2ccc(OCCN4CCN(C)CC4)c(Cl)c2C)c(-c2ccc(F)cc2)n3C)C(=O)O)n1` (single isomer, unassigned) [Example 69], for which the half-inhibitory concentration (IC50) in experiment [1] (setting [2]) was 1.04e-07 M; at Mcl-1 protein (setting [3]), 2.4e-08 M.
`COc1ccccc1C[C@@H](Oc1ncnc2oc(-c3ccc(F)cc3)c(-c3ccc(OCCN4CCN(C)CC4)c(Cl)c3C)c12)C(=O)O` [Example 3, (2R)-2-{[5-{3-chloro-2-methyl-4-[2-(4-methylpiperazin-1-yl)ethoxy]phenyl}-6-(4-fluorophenyl)furo[2,3-d]pyrimidin-4-yl]oxy}-3-(2-methoxyphenyl) propanoic acid]: the values for the half-maximal inhibitory concentration (IC50) (in experiment [1] (setting [2]); at Mcl-1 protein (setting [3])) were 3.64e-07 M and 1.7e-08 M, respectively.
In the case of `Cc1c(-c2c(-c3ccc(F)cc3)oc3ncnc(O[C@H](Cc4ccccc4OCc4cnccn4)C(=O)O)c23)ccc(OCCN2CCN(C)CC2)c1Cl` [Example 4, (2R)-2-{[5-{3-chloro-2-methyl-4-[2-(4-methylpiperazin-1-yl)ethoxy]phenyl}-6-(4-fluorophenyl)furo[2,3-d]pyrimidin-4-yl]oxy}-3-[2-(pyrazin-2-ylmethoxy)phenyl]propanoic acid], the IC50 in experiment [1] (setting [2]) was determined as 3.29e-07 M; on Mcl-1 protein (setting [3]), 2.9e-08 M.
Turning to `Cc1c(-c2c(-c3ccc(Cl)o3)oc3ncnc(O[C@H](Cc4ccccc4OCc4cnccn4)C(=O)O)c23)ccc(OCCN2CCN(C)CC2)c1Cl` [Example 5, (2R)-2-{[6-(5-chlorofuran-2-yl)-5-{3-chloro-2-methyl-4-[2-(4-methylpiperazin-1-yl)ethoxy]phenyl}furo[2,3-d]pyrimidin-4-yl]oxy}-3-[2-(pyrazin-2-ylmethoxy)phenyl]propanoic acid], the IC50 came out at 6.19e-07 M in experiment [1] (setting [2]) and 1.5e-08 M at Mcl-1 protein (setting [3]).
For the molecule `COc1ccccc1CC(Nc1ncnc2oc(-c3ccc(F)cc3)c(-c3ccc(OCCN4CCN(C)CC4)c(Cl)c3C)c12)C(=O)O` [Example 7, N-[(5Sa)-5-{3-chloro-2-methyl-4-[2-(4-methylpiperazin-1-yl)ethoxy]phenyl}-6-(4-fluorophenyl)furo[2,3-d]pyrimidin-4-yl]-2-methoxy-D-phenylalanine], the IC50 in experiment [1] (setting [2]) worked out at 7.57e-07 M; on Mcl-1 protein (setting [3]), 1.1e-07 M.
`COc1ccccc1-c1nccc(COc2ccccc2C[C@@H](Nc2ncnc3oc(-c4ccc(F)cc4)c(-c4ccc(OCCN5CCN(C)CC5)c(Cl)c4C)c23)C(=O)O)n1` [Example 9, N-[(5Ra)-5-{3-chloro-2-methyl-4-[2-(4-methylpiperazin-1-yl)ethoxy]phenyl}-6-(4-fluorophenyl)furo[2,3-d]pyrimidin-4-yl]-2-{[2-(2-methoxyphenyl)pyrimidin-4-yl]methoxy}-D-phenylalanine]: the half-maximal inhibitory concentration (IC50) in experiment [1] (exposed for 48 hours) was 6.89e-08 M; at Mcl-1 protein (setting [3]), 8.6e-08 M.
Turning to `CCc1sc2cccc(OC(Cc3ccccc3)C(=O)O)c2c1-c1ccc(OCCN2CCN(C)CC2)c(Cl)c1C` [Example 51, (2R)-2-[((3Sa)-3-{3-chloro-2-methyl-4-[2-(4-methylpiperazin-1-yl)ethoxy]phenyl}-2-ethyl-1-benzothiophen-4-yl)oxy]-3-phenylpropanoic acid], the IC50 is 1.1e-05 M in experiment [1] (setting [2]); 3.6e-07 M at Mcl-1 protein (setting [3]); 5.5e-09 M on Mcl-1 protein (value after '/', presumably the other FP method (Method 1 / Method 2), read-out: IC50 (M) Mcl-1 FP, second value of the cell).
For the molecule `COc1ccccc1CC(Oc1cccc2c(Cl)c(-c3ccc(F)cc3)n(-c3ccc(OCCN4CCN(C)CC4)c(Cl)c3C)c12)C(=O)O` [Example 57, (2R)-2-{[3-chloro-(1Sa)-1-{3-chloro-2-methyl-4-[2-(4-methylpiperazin-1-yl)ethoxy]phenyl}-2-(4-fluorophenyl)-1H-indol-7-yl]oxy}-3-(2-methoxyphenyl)propanoic acid], the IC50 on Mcl-1 protein (setting [3]) turned out to be 1.7e-07 M.
With `COc1ccccc1CC(Oc1cccc2cc(-c3ccco3)n(-c3ccc(OCCN4CCN(C)CC4)c(Cl)c3C)c12)C(=O)O` [Example 58, (2R)-2-{[(1Ra)-1-{3-chloro-2-methyl-4-[2-(4-methylpiperazin-1-yl)ethoxy]phenyl}-2-(furan-2-yl)-1H-indol-7-yl]oxy}-3-(2-methoxyphenyl)propanoic acid], the “percentage fluorescence polarization inhibition” value at Mcl-1 protein (setting [4]) is recorded as 51.9% @ 10 μM.
Consider `COc1ccccc1CC(Oc1cccc2cc(-c3ccco3)n(-c3ccc(OCCN4CCN(C)CC4)c(Cl)c3C)c12)C(=O)O` [Example 59, (2R)-2-{[(1Sa)-1-{3-chloro-2-methyl-4-[2-(4-methylpiperazin-1-yl)ethoxy]phenyl}-2-(furan-2-yl)-1H-indol-7-yl]oxy}-3-(2-methoxyphenyl)propanoic acid], for which the IC50 in experiment [1] (setting [2]) worked out at 1.24e-06 M; at Mcl-1 protein (setting [3]), 3.6e-08 M.
With `COc1ccccc1CC(Oc1cccc2cc(-c3ccc(F)o3)n(-c3ccc(OCCN4CCN(C)CC4)c(Cl)c3C)c12)C(=O)O` [Example 60, (2R)-2-{[(1Sa)-1-{3-chloro-2-methyl-4-[2-(4-methylpiperazin-1-yl)ethoxy]phenyl}-2-(5-fluorofuran-2-yl)-1H-indol-7-yl]oxy}-3-(2-methoxyphenyl)propanoic acid], the IC50 in experiment [1] (setting [2]) was found to be 5.68e-07 M; on Mcl-1 protein (setting [3]) it was 1.9e-08 M.
For the molecule `COc1ccccc1CC(Oc1cccc2oc(-c3ccc(F)cc3)c(-c3ccc(OCCN4CCN(C)CC4)c(Cl)c3C)c12)C(=O)O` [Example 61, (2R)-2-{[(3Ra)-3-{3-chloro-2-methyl-4-[2-(4-methylpiperazin-1-yl)ethoxy]phenyl}-2-(4-fluorophenyl)-1-benzofuran-4-yl]oxy}-3-(2-methoxyphenyl)propanoic acid], the “percentage fluorescence polarization inhibition” value on Mcl-1 protein (setting [4]) worked out at 52.8% @ 10 μM.
For the molecule `COc1ccccc1CC(Oc1cccc2oc(-c3ccc(F)cc3)c(-c3ccc(OCCN4CCN(C)CC4)c(Cl)c3C)c12)C(=O)O` [Example 62, (2R)-2-{[(3Sa)-3-{3-chloro-2-methyl-4-[2-(4-methylpiperazin-1-yl)ethoxy]phenyl}-2-(4-fluorophenyl)-1-benzofuran-4-yl]oxy}-3-(2-methoxyphenyl)propanoic acid], the IC50 on Mcl-1 protein (setting [3]) amounted to 8.2e-07 M.
For the molecule `Cc1c(-c2c(-c3ccc(F)cc3)oc3cccc(OC(Cc4ccccc4OCC(F)(F)F)C(=O)O)c23)ccc(OCCN2CCN(C)CC2)c1Cl` [Example 65, (2R)-2-{[(3Sa)-3-{3-chloro-2-methyl-4-[2-(4-methylpiperazin-1-yl)ethoxy]phenyl}-2-(4-fluorophenyl)-1-benzofuran-4-yl]oxy}-3-[2-(2,2,2-trifluoroethoxy)phenyl]propanoic acid], the concentration for half-maximal inhibition (IC50) on Mcl-1 protein (setting [3]) amounted to 1e-06 M.
Regarding `Cc1c(-c2c(-c3ccc(F)cc3)oc3cc(F)cc(OC(Cc4ccccc4OCC(F)(F)F)C(=O)O)c23)ccc(OCCN2CCN(C)CC2)c1Cl` [Example 66, (2R)-2-{[(3Sa)-3-{3-chloro-2-methyl-4-[2-(4-methylpiperazin-1-yl)ethoxy]phenyl}-6-fluoro-2-(4-fluorophenyl)-1-benzofuran-4-yl]oxy}-3-[2-(2,2,2-trifluoroethoxy)phenyl]propanoic acid], the IC50 at Mcl-1 protein (setting [3]) is 1.6e-06 M.
Take `Cc1c(Cl)cccc1-c1csc2ccnc(N[C@H](Cc3ccccc3)C(=O)O)c12` [Example 70, N-[3-(3-chloro-2-methylphenyl)thieno[3,2-c]pyridin-4-yl]-D-phenylalanine]: the inhibition at 10 µM on Mcl-1 protein (@ 10 μM test compound, partial inhibitors, read-out: percentage fluorescence polarization inhibition) is 13.6%.
